We go through 18 molecules from article PMC8253220, “Molecular design, synthesis and in vitro biological evaluation of thienopyrimidine–hydroxamic acids as chimeric kinase HDAC inhibitors: a challenging approach to combat cancer” (Journal of Enzyme Inhibition and Medicinal Chemistry, 2021).

Sequence of VEGFR-2 (P35968 20-1356): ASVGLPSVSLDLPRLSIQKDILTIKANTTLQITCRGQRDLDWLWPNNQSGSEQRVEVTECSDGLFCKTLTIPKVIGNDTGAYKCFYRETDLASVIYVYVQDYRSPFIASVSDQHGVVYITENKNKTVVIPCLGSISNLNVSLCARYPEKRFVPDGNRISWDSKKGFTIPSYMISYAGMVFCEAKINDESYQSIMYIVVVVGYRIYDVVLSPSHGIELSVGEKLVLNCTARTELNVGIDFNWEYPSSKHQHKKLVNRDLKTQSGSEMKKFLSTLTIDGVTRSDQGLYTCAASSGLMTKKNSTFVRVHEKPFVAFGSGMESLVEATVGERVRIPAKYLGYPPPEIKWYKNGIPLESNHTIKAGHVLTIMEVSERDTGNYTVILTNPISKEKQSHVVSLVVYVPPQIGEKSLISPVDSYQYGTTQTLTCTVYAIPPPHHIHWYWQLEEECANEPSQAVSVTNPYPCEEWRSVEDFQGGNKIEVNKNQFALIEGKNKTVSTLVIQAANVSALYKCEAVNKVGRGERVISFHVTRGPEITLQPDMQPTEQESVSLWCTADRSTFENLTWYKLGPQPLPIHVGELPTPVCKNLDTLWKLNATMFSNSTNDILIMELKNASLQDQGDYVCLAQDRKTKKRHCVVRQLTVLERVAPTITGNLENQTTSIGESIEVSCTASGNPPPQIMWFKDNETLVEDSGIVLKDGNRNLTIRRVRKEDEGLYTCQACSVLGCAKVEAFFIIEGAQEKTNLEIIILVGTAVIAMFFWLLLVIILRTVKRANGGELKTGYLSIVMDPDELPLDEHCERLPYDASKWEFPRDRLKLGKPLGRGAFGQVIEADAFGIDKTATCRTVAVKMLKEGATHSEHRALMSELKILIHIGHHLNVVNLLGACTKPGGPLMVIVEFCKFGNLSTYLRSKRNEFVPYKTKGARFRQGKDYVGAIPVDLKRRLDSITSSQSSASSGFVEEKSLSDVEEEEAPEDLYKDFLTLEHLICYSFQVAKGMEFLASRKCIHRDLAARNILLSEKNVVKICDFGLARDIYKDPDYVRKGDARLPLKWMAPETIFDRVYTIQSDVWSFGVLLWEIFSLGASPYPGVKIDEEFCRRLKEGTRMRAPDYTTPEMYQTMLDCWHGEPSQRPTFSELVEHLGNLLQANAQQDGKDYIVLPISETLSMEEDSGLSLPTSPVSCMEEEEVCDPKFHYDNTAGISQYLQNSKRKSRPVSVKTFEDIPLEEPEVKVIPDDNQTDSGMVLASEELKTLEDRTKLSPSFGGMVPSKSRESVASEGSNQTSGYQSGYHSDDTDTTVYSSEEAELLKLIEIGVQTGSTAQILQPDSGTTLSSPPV

The first series deals with VEGFR-2 (Homo sapiens, UniProt P35968). Briefly: In vitro VEGFR-2 tyrosine kinase inhibitory assay (Z'-LYTE, SelectScreen). The class given is biochemical. As to conditions: 10 µM single dose. The method, then:
The target compounds were evaluated for their in vitro inhibitory activities against EGFR, VEGFR-2, and HDAC6. The EGFR and VEGFR-2 inhibitory assays were performed at Thermo Fischer Scientific, Madison, WI, USA (SelectScreenServices@thermofisher.com). The HDAC inhibitory assays were performed at BPS Bioscience, San Diego, CA, USA (www.bpsbioscience.com). Initially, all of the synthesised target compounds were evaluated for their percent inhibitory activity against EGFR, VEGFR-2, and HDACs at 10 µM single dose concentration, in which their mean percent inhibition is summarised in (Figure 5, Tables 1 and [2]). Representative compounds were evaluated for their percent inhibitory activity against EGFR and VEGFR-2 at 6 different concentrations (0.1 nM, 1 nM, 10 nM, 100 nM, 1 µM, 10 µM) to subsequently calculate their IC50 values (Table 3). Additionally, all of the synthesised target compounds were submitted to the National Cancer Institute “NCI” Bethesda, Maryland, USA (www.dtp.nci.nih.gov), to evaluate theirs in vitro antiproliferative activities against NCI 60- cancer cell line panel.
In vitro enzyme inhibition determination for the synthesised compounds was carried out in Thermo Fischer Scientific, Madison, WI, USA (SelectScreenServices@thermofisher.com). The EGFR and VEGFR-2 tyrosine kinase % inhibitory activity at a single-dose concentration of 10 µM was performed initially then representative compounds were evaluated at single-dose concentrations of (0.1 nM, 1 nM, 10 nM, 100 nM, 1 µM) using ZYLTE technology. A fluorescence-based, coupled-enzyme format is employed in the biochemical assay and depends on the sensitivity of proteolytic cleavage to non-phosphorylated and phosphorylated peptides. Then IC50 values for selected compounds were determined by GraphPad Prism at Misr international university.
With `CCOC(=O)CCNC(=O)c1sc2ncnc(Nc3ccc(Cl)cc3)c2c1C` [Compound 17c], 10 µM produced 87% inhibition.

System in a further series: not given
Experiment: not given
Conditions: not given
Turning to `CCOC(=O)c1sc2ncnc(Nc3ccc(NC(=O)Nc4ccccc4)cc3)c2c1C` [Compound 6a, Ethyl 5-methyl-4–(4-(3-phenylureido)phenylamino)thieno[2,3-d]pyrimidine-6-carboxylate], the melting point (commonly the temperature, or range, at which the solid turns liquid) is 319 to 322 °C.

For the molecule `CCOC(=O)c1sc2ncnc(Nc3ccc(NC(=O)Nc4cccc(OC)c4)cc3)c2c1C` [Compound 6b, Ethyl 4–(4-(3–(3-methoxyphenyl)ureido)phenylamino)-5-methylthieno[2,3-d]pyrimidine-6-carboxylate], the melting point fell in the range of 220 to 222 °C.

`CCOC(=O)c1sc2ncnc(Nc3ccc(NC(=O)Nc4cccc(C(F)(F)F)c4)cc3)c2c1C` [Compound 6c, Ethyl 4–(4-(3–(3-trifluromethyphenyl)ureido)phenylamino)-5-methylthieno[2,3-d]pyrimidine-6-carboxylate] showed a melting point of 305 to 307 °C.

In the case of `CCOC(=O)c1sc2ncnc(Nc3ccc(NC(=S)Nc4ccccc4)cc3)c2c1C` [Compound 6d, Ethyl 5-methyl-4–(4-(3-phenylthioureido)phenylamino)thieno[2,3-d]pyrimidine-6-carboxylate], the melting point was 173 to 175 °C.

`CCOC(=O)CCNC(=O)c1sc2ncnc(Nc3ccc(NC(=O)Nc4cccc(OC)c4)cc3)c2c1C` [Compound 9b, Ethyl 3–(4-(4–(3-(3-methoxyphenyl)ureido)phenylamino)-5-methylthieno[2,3-d]pyrimidine-6-carboxamido)propanoate] registered a melting point of 250 °C.

`CCOC(=O)CCNC(=O)c1sc2ncnc(Nc3ccc(NC(=O)Nc4cccc(C(F)(F)F)c4)cc3)c2c1C` [Compound 9c, Ethyl 3–(5-methyl-4–(4-(3(3(trifluoromethyl)phenyl)ureido)phenylamino)thieno[2,3-d]pyrimidine-6-carboxamido)propanoate] had a melting point of 220 °C.

`CCOC(=O)CCCNC(=O)c1sc2ncnc(Nc3ccc(NC(=O)Nc4ccccc4)cc3)c2c1C` [Compound 10a, Ethyl 4–(5-methyl-4–(4-(3-phenylureido)phenylamino)thieno[2,3-d]pyrimidine-6-carboxamido)butanoate] returned a melting point of 219 to 221 °C.

Molecule `CCOC(=O)CCCNC(=O)c1sc2ncnc(Nc3ccc(NC(=O)Nc4cccc(C(F)(F)F)c4)cc3)c2c1C` [Compound 10c, Ethyl 4–(5-methyl-4–(4-(3–(3(trifluoromethyl)phenyl)ureido)phenylamino)thieno[2,3-d]pyrimidine-6-carboxamido)butanoate] registered a melting point of 197 to 199 °C.

Molecule `CCOC(=O)c1sc2ncnc(Nc3ccc4[nH]cnc4c3)c2c1C` [Compound 14a, Ethyl 4-(1H-benzo[d]imidazol-5-ylamino)-5-methylthieno[2,3-d]pyrimidine-6-carboxylate.] registered a melting point of 250 to 251 °C.

`CCOC(=O)c1sc2ncnc(Nc3ccccc3)c2c1C` [Compound 14b, Ethyl 5-methyl-4-(phenylamino)thieno[2,3-d]pyrimidine-6-carboxylate] had a melting point of 170 to 172 °C.

In turn, `CCOC(=O)c1sc2ncnc(Nc3ccc(Cl)cc3)c2c1C` [Compound 14c, Ethyl 4–(4-chlorophenylamino)-5-methylthieno[2,3-d]pyrimidine-6-carboxylate] registered a melting point of 174 to 176 °C.

For the molecule `CCOC(=O)c1sc2ncnc(Nc3ccc(F)c(Cl)c3)c2c1C` [Compound 14d, Ethyl 4–(3-chloro-4-fluorophenylamino)-5-methylthieno[2,3-d]pyrimidine-6-carboxylate], the melting point is 154 to 156 °C.

`CCOC(=O)CCNC(=O)c1sc2ncnc(Nc3ccccc3)c2c1C` [Compound 17b, Ethyl 3–(5-methyl-4-(phenylamino)thieno[2,3-d]pyrimidine-6-carboxamido)propanoate] yielded a melting point of 206 °C.

Take `CCOC(=O)CCNC(=O)c1sc2ncnc(Nc3ccc(Cl)cc3)c2c1C` [Compound 17c]: the melting point is 202 °C.

The molecule `CCOC(=O)CCNC(=O)c1sc2ncnc(Nc3ccc(F)c(Cl)c3)c2c1C` [Compound 17d, Ethyl 3–(4-(3-chloro-4-fluorophenylamino)-5-methylthieno[2,3-d]pyrimidine-6-carboxamido)propanoate] had a melting point of 184 °C.

The molecule `CCOC(=O)CCCNC(=O)c1sc2ncnc(Nc3ccccc3)c2c1C` [Compound 18b, Ethyl 4–(5-methyl-4-(phenylamino)thieno[2,3-d]pyrimidine-6-carboxamido)butanoate] yielded a melting point of 145 to 147 °C.

As to `CCOC(=O)CCCNC(=O)c1sc2ncnc(Nc3ccc(Cl)cc3)c2c1C` [Compound 18c, Ethyl 4–(4-(4-chlorophenylamino)-5-methylthieno[2,3-d]pyrimidine-6-carboxamido)butanoate], the melting point was found to be 138 °C.

Consider `CCOC(=O)CCCNC(=O)c1sc2ncnc(Nc3ccc(F)c(Cl)c3)c2c1C` [Compound 18d, Ethyl 4–(4-(3-chloro-4-fluorophenylamino)-5-methylthieno[2,3-d]pyrimidine-6-carboxamido)butanoate], for which the melting point is 131 to 133 °C.
